The source of these data is patent US20250237650A1 (priority 2021, published 2025).

The subject of test [1] is WT, Alpha, Beta, Delta, and Omicron BA.1 spike proteins. The test is classed as binding, SARS-CoV-2.
For test [2], the system named is full-length trimeric Alpha, Beta, and Delta spikes. The test is classed as binding, SARS-CoV-2.

In the case of heparin [reference compound], in test [1], the “binding affinities to VOC spikes (in words)” value is “an increase in affinity between HEP and Omicron spike over Delta and other VOC spikes”.

Consider ACE2, for which, in test [1], the “binding affinities to VOC spikes (in words)” value was “within nanomolar range”.

Take heparin [HEP15, reference compound]: the “binding affinity to variant spikes relative to WT spike” value in test [2] is on record as “comparable binding affinity to WT spike”.
